Assay results from patent US20070112018A1, “Treatment of peripheral arterial occlusive disease” (priority 2005, published 2007).
Values after ≈ are worked out from the molar mass of the structure shown.

Tests used:
[1] = Non-clinical oral pharmacokinetics, all species evaluated; assay type: in vivo; settings: oral administration
Protocol: Since the PK profile of rifalazil has been studied in man, only a brief summary of the non-clinical PK is provided. Overall, the absorption, distribution, metabolism, and elimination of rifalazil observed in the animals studied are similar to those observed in man.
Peak plasma concentrations were observed from 4 to 18 hours after oral administration.

[2] = Phase 1 single-dose study (2.5, 5, 12.5, 25 mg), adverse events; assay type: in vivo, human
Protocol: Several Phase 1 studies of rifalazil administration have been carried out using 25 mg single doses. In one such study, sixteen patients received single doses of 25 mg. Overall, 75% of patients (12/16) reported treatment-emergent adverse events (AEs). […] However, for all dose groups, the incidence of AEs was higher for females than for males, and this difference was also observed in the placebo group. At 25 mg, […] of females (31/39) and 55% of males (16/29) reported treatment-emergent AEs. The AEs with an incidence greater than or equal to 10% were: […]

[3] = Non-clinical oral pharmacokinetics in the rat; assay type: in vivo; settings: for bioavailability: rat, plasma, po
Protocol: (§1) In rats and dogs, the Vdβ/F following oral administration was 40-80 L/kg. […] The highest mean Cmax observed was in the wall of the GI tract and occurred approximately 1 hour post-dose. […] A large tissue compartment of rifalazil is considered important for efficacy against Chlamydia given the intracellular nature of Chlamydia infection.

[4] = tested on: C. trachomatis; experiment: Cell culture protection against re-infection with C. trachomatis; assay type: cell-based; settings: single doses in cell culture
[5] = physchem; assay type: physicochemical
Protocol: Rifalazil is a highly lipophilic molecule having limited solubility in water at physiological pH (approximately 200 ng/mL). Evidence of the highly lipophilic behavior of the molecule is illustrated in the partition coefficient (n-octanol:water) of between 70, 569 and over 900,000 in different experiments (Log P range; 4.9-5.9).

[6] = Non-clinical oral pharmacokinetics in the beagle dog; assay type: in vivo
Protocol: as §1

[7] = tested on: C. pneumoniae; experiment: Potency against C. pneumoniae compared with roxithromycin
Source text: The use of rifalazil in the treatment of PAOD is supported by both preclinical and clinical lines of evidence.

[8] = Phase 1 Study ABI-1648-006, single oral dose pharmacokinetics; settings: for half-life / Tmax / CL/F / AUC(0-inf) / Cmax: human, plasma; for AUC0−∞/Dose Mean / Cmax/Dose Mean: normalized to mg/kg
Protocol: Study ABI-1648-006 was conducted to evaluate the PK of single and multiple oral doses of 2.5, 5, 12.5, and 25 mg administered to healthy male and female volunteers.

[9] = Degradation to 25-desacetyl derivative under acidic and basic conditions; assay type: physicochemical
Source text: Rifalazil degrades to a 25-desacetyl derivative under both acidic and basic conditions. Typical of ester hydrolysis, the degradation in highly alkaline solutions is rapid while at an acidic pH, e.g., pH 1, the degradation at room temperature is slower, approximately 6% in one hour.

[10] = females, single oral dose 2.5 mg
[11] = females, single oral dose 12.5 mg
[12] = females, single oral dose 25 mg
[13] = males, single oral dose 12.5 mg

CO[C@H]1/C=C/O[C@@]2(C)Oc3c(C)c(O)c4c(=O)c(c5oc6cc(N7CCN(CC(C)C)CC7)cc(O)c6nc-5c4c3C2=O)NC(=O)/C(C)=C\C=C\[C@H](C)[C@H](O)[C@@H](C)[C@@H](O)[C@@H](C)[C@H](OC(C)=O)[C@@H]1C [rifalazil, 3′-hydroxy-5′-(4-isobutyl-1-piperazinyl) benzoxazinorifamycin]
Cmax and AUC as a function of dose [1]: dose-dependent but not dose-proportional
males reporting treatment-emergent AEs ([2]; at 25 mg (16/29)): 55%
females reporting treatment-emergent AEs ([2]; at 25 mg (31/39)): 88%
incidence of Bacteria in urine ([2]; single dose 25 mg): 19%
incidence of Blood present in urine ([2]; single dose 25 mg): 13%
incidence of Body temperature increased ([2]; single dose 25 mg): 25%
incidence of Headache ([2]; single dose 25 mg): 38%
incidence of Lymphocyte count decreased ([2]; single dose 25 mg): 31%
incidence of Monocyte count increased ([2]; single dose 25 mg): 13%
incidence of Nausea ([2]; single dose 25 mg): 13%
incidence of Neutrophil count increased ([2]; single dose 25 mg): 13%
incidence of Pharyngitis ([2]; single dose 25 mg): 13%
incidence of White blood cells (WBCs) in urine ([2]; single dose 25 mg): 19%
patients reporting treatment-emergent adverse events ([2]; single dose 25 mg, 16 patients): 75%
bioavailability ([3]; female rats, 3 mg/kg): 28.9%
bioavailability ([3]; female rats, 100 mg/kg): 6.1%
bioavailability ([3]; male rats, 3 mg/kg): 43.5%
bioavailability ([3]; male rats, 100 mg/kg): 11.7%
Vdβ/F ([3]; rats, oral administration): 40 to 80 L/kg
duration of protective effect against re-infection with C. trachomatis [4]: up to 12 days
partition coefficient (n-octanol:water) [5]: 70, 569-900,000
logP ([5]; n-octanol:water, different experiments, read-out: Log P range): 4.9 to 5.9
solubility ([5]; pH 7.4, aqueous buffer, physiological pH, read-out: solubility in water): ~0.2 µg/mL (≈ 0.213 µM)
Vdβ/F ([6]; dogs, oral administration): 40 to 80 L/kg
bioavailability ([6]; plasma, po, beagle dog, 10 mg/kg): 16 to 17%
potency against C. pneumoniae relative to roxithromycin [7]: 2000 times
Time to maximum concentration ([8]; after single dose administration (study conclusions)): 4 to 6 h
half-life ([8]; both, oral, elimination t1/2, study conclusions): 100 to 150 h
Tmax ([8]; both, po): 4.8 to 6.2 h
half-life ([8]; both, po, mean distribution t1/2, range across groups, single oral doses 2.5-25 mg, males and females): 4.5 to 8.6 h
half-life ([8]; both, po, mean elimination t1/2, range across groups, single oral doses 2.5-25 mg, males and females): 101 to 150 h
CL/F ([8]; female, po, 2.5 mg): 4.17 mL/min/kg
Tmax ([8]; female, po, 2.5 mg): 4.8 h
AUC(0-inf) ([8]; female, po, 2.5 mg, AUC0−∞ GMean (geometric mean), females, single oral dose 2.5 mg): 168 ng·h/mL
AUC(0-inf) ([8]; female, po, 2.5 mg, AUC0−∞ Mean, females, single oral dose 2.5 mg): 174 ng·h/mL
Cmax ([8]; female, po, 2.5 mg, Cmax GMean (geometric mean), females, single oral dose 2.5 mg): 7.1 ng/mL
Cmax ([8]; female, po, 2.5 mg, Cmax Mean, females, single oral dose 2.5 mg): 7.5 ng/mL
half-life ([8]; female, po, 2.5 mg, Distribution t1/2 Mean, females, single oral dose 2.5 mg): 5 h
half-life ([8]; female, po, 2.5 mg, Elimination t1/2 Mean, females, single oral dose 2.5 mg): 133 h
CL/F ([8]; female, po, 5 mg): 3.83 mL/min/kg
Tmax ([8]; female, po, 5 mg): 5 h
AUC(0-inf) ([8]; female, po, 5 mg, AUC0−∞ GMean (geometric mean), females, single oral dose 5 mg): 373 ng·h/mL
AUC(0-inf) ([8]; female, po, 5 mg, AUC0−∞ Mean, females, single oral dose 5 mg): 397 ng·h/mL
Cmax ([8]; female, po, 5 mg, Cmax GMean (geometric mean), females, single oral dose 5 mg): 13.5 ng/mL
Cmax ([8]; female, po, 5 mg, Cmax Mean, females, single oral dose 5 mg): 14.6 ng/mL
half-life ([8]; female, po, 5 mg, Distribution t1/2 Mean, females, single oral dose 5 mg): 4.5 h
half-life ([8]; female, po, 5 mg, Elimination t1/2 Mean, females, single oral dose 5 mg): 137 h
CL/F ([8]; female, po, 12.5 mg): 6.5 mL/min/kg
Tmax ([8]; female, po, 12.5 mg): 6.2 h
AUC(0-inf) ([8]; female, po, 12.5 mg, AUC0−∞ GMean (geometric mean), females, single oral dose 12.5 mg): 526 ng·h/mL
AUC(0-inf) ([8]; female, po, 12.5 mg, AUC0−∞ Mean, females, single oral dose 12.5 mg): 540 ng·h/mL
Cmax ([8]; female, po, 12.5 mg, Cmax GMean (geometric mean), females, single oral dose 12.5 mg): 19.9 ng/mL
Cmax ([8]; female, po, 12.5 mg, Cmax Mean, females, single oral dose 12.5 mg): 20.8 ng/mL
half-life ([8]; female, po, 12.5 mg, Distribution t1/2 Mean, females, single oral dose 12.5 mg): 6.1 h
half-life ([8]; female, po, 12.5 mg, Elimination t1/2 Mean, females, single oral dose 12.5 mg): 110 h
CL/F ([8]; female, po, 25 mg): 7.17 mL/min/kg
Tmax ([8]; female, po, 25 mg): 4.8 h
AUC(0-inf) ([8]; female, po, 25 mg, AUC0−∞ GMean (geometric mean), females, single oral dose 25 mg): 1020 ng·h/mL
AUC(0-inf) ([8]; female, po, 25 mg, AUC0−∞ Mean, females, single oral dose 25 mg): 1100 ng·h/mL
Cmax ([8]; female, po, 25 mg, Cmax GMean (geometric mean), females, single oral dose 25 mg): 33.3 ng/mL
Cmax ([8]; female, po, 25 mg, Cmax Mean, females, single oral dose 25 mg): 36.5 ng/mL
half-life ([8]; female, po, 25 mg, Distribution t1/2 Mean, females, single oral dose 25 mg): 7.8 h
half-life ([8]; female, po, 25 mg, Elimination t1/2 Mean, females, single oral dose 25 mg): 150 h
Vdβ/F Mean [8, 10]: 45.0 L/kg
AUC0−∞/Dose Mean [8, 10]: 4274.6
Cmax/Dose Mean [8, 10]: 183.1
Vdβ/F Mean ([8]; females, single oral dose 5 mg): 41.6 L/kg
AUC0−∞/Dose Mean ([8]; females, single oral dose 5 mg): 5124.5
Cmax/Dose Mean ([8]; females, single oral dose 5 mg): 185.1
Vdβ/F Mean [8, 11]: 61.6 L/kg
AUC0−∞/Dose Mean [8, 11]: 2759.4
Cmax/Dose Mean [8, 11]: 106.9
Vdβ/F Mean [8, 12]: 82.8 L/kg
AUC0−∞/Dose Mean [8, 12]: 2796.3
Cmax/Dose Mean [8, 12]: 91.3
CL/F ([8]; male, po, 2.5 mg): 3.5 mL/min/kg
Tmax ([8]; male, po, 2.5 mg): 5.3 h
AUC(0-inf) ([8]; male, po, 2.5 mg, AUC0−∞ GMean (geometric mean), males, single oral dose 2.5 mg): 172 ng·h/mL
AUC(0-inf) ([8]; male, po, 2.5 mg, AUC0−∞ Mean, males, single oral dose 2.5 mg): 188 ng·h/mL
Cmax ([8]; male, po, 2.5 mg, Cmax GMean (geometric mean), males, single oral dose 2.5 mg): 7.8 ng/mL
Cmax ([8]; male, po, 2.5 mg, Cmax Mean, males, single oral dose 2.5 mg): 8.4 ng/mL
half-life ([8]; male, po, 2.5 mg, Distribution t1/2 Mean, males, single oral dose 2.5 mg): 5.3 h
half-life ([8]; male, po, 2.5 mg, Elimination t1/2 Mean, males, single oral dose 2.5 mg): 101 h
CL/F ([8]; male, po, 12.5 mg): 5.5 mL/min/kg
Tmax ([8]; male, po, 12.5 mg): 5 h
AUC(0-inf) ([8]; male, po, 12.5 mg, AUC0−∞ GMean (geometric mean), males, single oral dose 12.5 mg): 528 ng·h/mL
AUC(0-inf) ([8]; male, po, 12.5 mg, AUC0−∞ Mean, males, single oral dose 12.5 mg): 552 ng·h/mL
Cmax ([8]; male, po, 12.5 mg, Cmax GMean (geometric mean), males, single oral dose 12.5 mg): 19.2 ng/mL
Cmax ([8]; male, po, 12.5 mg, Cmax Mean, males, single oral dose 12.5 mg): 19.7 ng/mL
half-life ([8]; male, po, 12.5 mg, Distribution t1/2 Mean, males, single oral dose 12.5 mg): 7.7 h
half-life ([8]; male, po, 12.5 mg, Elimination t1/2 Mean, males, single oral dose 12.5 mg): 134 h
CL/F ([8]; male, po, 25 mg): 8 mL/min/kg
Tmax ([8]; male, po, 25 mg): 5 h
AUC(0-inf) ([8]; male, po, 25 mg, AUC0−∞ GMean (geometric mean), males, single oral dose 25 mg): 656 ng·h/mL
AUC(0-inf) ([8]; male, po, 25 mg, AUC0−∞ Mean, males, single oral dose 25 mg): 683 ng·h/mL
Cmax ([8]; male, po, 25 mg, Cmax GMean (geometric mean), males, single oral dose 25 mg): 23.9 ng/mL
Cmax ([8]; male, po, 25 mg, Cmax Mean, males, single oral dose 25 mg): 24.7 ng/mL
half-life ([8]; male, po, 25 mg, Distribution t1/2 Mean, males, single oral dose 25 mg): 8.7 h
half-life ([8]; male, po, 25 mg, Elimination t1/2 Mean, males, single oral dose 25 mg): 116 h
Vdβ/F Mean ([8]; males, single oral dose 2.5 mg): 25.4 L/kg
AUC0−∞/Dose Mean ([8]; males, single oral dose 2.5 mg): 6084.0
Cmax/Dose Mean ([8]; males, single oral dose 2.5 mg): 269.6
Vdβ/F Mean [8, 13]: 62.3 L/kg
AUC0−∞/Dose Mean [8, 13]: 3299.8
Cmax/Dose Mean [8, 13]: 117.4
Vdβ/F Mean ([8]; males, single oral dose 25 mg): 74.2 L/kg
AUC0−∞/Dose Mean ([8]; males, single oral dose 25 mg): 2273.8
Cmax/Dose Mean ([8]; males, single oral dose 25 mg): 82.0
degradation in highly alkaline solutions ([9]; highly alkaline solutions): rapid
degradation to 25-desacetyl derivative ([9]; pH 1, room temperature, in one hour): approximately 6%
